± gives the standard deviation of the averaged measurements.

Compound in test [1]: T1, CNC(=O)c1ccc(N2C(=S)N(c3ccc(C#N)c(C(F)(F)F)c3)C(=O)C2(C)C)cc1F [MDV3100]
The test can be described thus: area under dose-response curve of surviving fraction (unscaled, Aref=0) (surviving fraction x log10(nM)); higher = more resistant. Conditions: exposure time: 5 days; dose range 0.5-1000 nM. Summed up: (§1)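 Surviving fractions were fitted by 3-parameter logistic regression in the drc R package to give dose-response survival curves. They came from tumour cell lines treated for five days with eight inhibitor concentrations from 0.5 to 1000 nM and read by CellTiter-Glo luminescence against DMSO-only wells. The area under the curve is the unscaled activity area. It was calculated over log10 dose with Aref = 0.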

Compound in the next test: CC[C@@H]1C(=O)N(C)c2cnc(Nc3ccc(C(=O)NC4CCN(C)CC4)cc3OC)nc2N1C1CCCC1 [BI-2536]
The test is described as above. Conditions: exposure time: 5 days; dose range 0.5-1000 nM. Put shortly: as §1

Compound in the next test: CC1(C)CC(=O)c2c(C(F)(F)F)nn(-c3ccc(C(N)=O)c(N[C@H]4CC[C@H](OC(=O)CN)CC4)c3)c2C1 [SNX-5422]
The description is as above. Conditions: exposure time: 5 days; dose range 0.5-1000 nM. Summed up:
as §1

Compound in the next test: C=CC(=O)Nc1cc2c(Nc3ccc(F)c(Cl)c3)ncnc2cc1OCCCN1CCOCC1 [CANERTINIB]
Described as above. Conditions: exposure time: 5 days; dose range 0.5-1000 nM. Summed up: as §1

Compound in test [2]: T1, MDV3100
The test can be described thus: surviving fraction relative to DMSO-only wells; higher = less growth inhibition. The following applies: exposure time: 5 days. Put shortly: (§2)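 Inhibitors were tested at 0.5, 1, 5, 10, 50, 100, 500 and 1000 nM, applied continuously for five days beginning 24 hours after log-phase tumour cells were seeded at 250–500 per well in 384-well plates. CellTiter-Glo luminescence served as the viability measure, expressed as surviving fraction against the median of DMSO-only wells. Each line, screened three times, was kept only with replicate Pearson r >0.7 and median Z' >0.3.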

Compound in test [3]: Cn1cc(C2=Nc3cc(NC(=O)C(N)C4CCCCC4)cc4c3C2=CNNC4=O)cn1
The test is described as above. Conditions: exposure time: 5 days. Put shortly:
as §2

Turning to SUM149.B1*.S BREAST, the “area under dose-response curve” value with MDV3100 [1] is 2.91; with BI-2536, 2; with SNX-5422, 2.31; with CANERTINIB, 3. For the same test system, the surviving fraction in the test with MDV3100 [2] (0.5 nM) was 0.994 ± 0.02; with MDV3100 [2] (1 nM), 0.925 ± 0.017; with MDV3100 [2] (5 nM), 0.979 ± 0.063; with MDV3100 [2] (10 nM), 0.578 ± 0.014; in the test with MDV3100 [2] (50 nM), 1.03 ± 0.04; with MDV3100 [2] (100 nM), 0.9605 ± 0.0031. Besides, the surviving fraction in the test with MDV3100 [2] (500 nM) was 1.02 ± 0.011; in the test with MDV3100 [2] (1000 nM) it was 0.694 ± 0.049; in test [3] (0.5 nM) it was 1.045 ± 0.0088; in test [3] (1 nM), 1.1 ± 0.025; in test [3] (5 nM) it was 1.01 ± 0.057; in test [3] (10 nM), 1.04 ± 0.033. Also, the surviving fraction in test [3] (50 nM) is 1.03 ± 0.062; in test [3] (100 nM) it was 0.954 ± 0.03; in test [3] (500 nM) it was 0.377 ± 0.0042; in test [3] (1000 nM), 0.225 ± 0.024.
On to SUM159 BREAST, for which the “area under dose-response curve” value with MDV3100 [1] is 3.33; with BI-2536, 1.81; in the test with SNX-5422, 2.17; in the test with CANERTINIB, 3.11. Further, the surviving fraction with MDV3100 [2] (0.5 nM) was 1.01 ± 0.034; with MDV3100 [2] (1 nM), 1.005 ± 0.0052; in the test with MDV3100 [2] (5 nM), 1.01 ± 0.011; in the test with MDV3100 [2] (10 nM) it was 0.996 ± 0.01; with MDV3100 [2] (50 nM), 1.01 ± 0.013; in the test with MDV3100 [2] (100 nM), 1.014 ± 0.0025. Besides, the surviving fraction with MDV3100 [2] (500 nM) turned out to be 1.02 ± 0.015; with MDV3100 [2] (1000 nM), 0.9937 ± 0.0058; in test [3] (0.5 nM), 1.13 ± 0.14; in test [3] (1 nM), 1.16 ± 0.17; in test [3] (5 nM) it was 1.16 ± 0.19; in test [3] (10 nM), 1.12 ± 0.12. Besides, the surviving fraction amounted to 1.01 ± 0.066 in test [3] (50 nM), 1.1 ± 0.12 in test [3] (100 nM), 1.04 ± 0.012 in test [3] (500 nM) and 0.862 ± 0.011 in test [3] (1000 nM).
Take SYO1 SYNOVIAL: the “area under dose-response curve” value stood at 2.45 with MDV3100 [1], 0.562 with BI-2536, 1.47 with SNX-5422 and 2.48 with CANERTINIB. In addition, the surviving fraction with MDV3100 [2] (0.5 nM) amounted to 0.989 ± 0.036; with MDV3100 [2] (1 nM), 0.883 ± 0.051; with MDV3100 [2] (5 nM), 0.946 ± 0.018; in the test with MDV3100 [2] (10 nM), 0.546 ± 0.027; with MDV3100 [2] (50 nM) it was 0.91 ± 0.023; with MDV3100 [2] (100 nM) it was 0.914 ± 0.032. Besides, the surviving fraction with MDV3100 [2] (500 nM) was found to be 0.987 ± 0.05; with MDV3100 [2] (1000 nM) it was 0.653 ± 0.023; in test [3] (0.5 nM), 0.977 ± 0.022; in test [3] (1 nM) it was 0.96 ± 0.026; in test [3] (5 nM), 0.924 ± 0.04; in test [3] (10 nM), 0.897 ± 0.036. Moreover, the surviving fraction in test [3] (50 nM) was 0.441 ± 0.02; in test [3] (100 nM) it was 0.18 ± 0.051; in test [3] (500 nM), 0.0432 ± 0.008; in test [3] (1000 nM), 0.042 ± 0.0055.
T47D BREAST: the “area under dose-response curve” value with MDV3100 [1] was found to be 3.29; with BI-2536, 1.66; in the test with SNX-5422, 2.33; in the test with CANERTINIB it was 3.01. In addition, the surviving fraction with MDV3100 [2] (0.5 nM) amounted to 0.9561 ± 0.0072; with MDV3100 [2] (1 nM), 0.988 ± 0.044; with MDV3100 [2] (5 nM), 0.983 ± 0.021; with MDV3100 [2] (10 nM), 0.894 ± 0.035; with MDV3100 [2] (50 nM) it was 1.1 ± 0.015; in the test with MDV3100 [2] (100 nM), 1.02 ± 0.036. In addition, the surviving fraction was determined as 1.03 ± 0.047 with MDV3100 [2] (500 nM); 0.999 ± 0.041 with MDV3100 [2] (1000 nM); 0.9916 ± 0.0057 in test [3] (0.5 nM); 1.02 ± 0.032 in test [3] (1 nM); 1.03 ± 0.041 in test [3] (5 nM); 1.07 ± 0.022 in test [3] (10 nM). The surviving fraction was found to be 1.12 ± 0.044 in test [3] (50 nM), 1.14 ± 0.059 in test [3] (100 nM), 0.896 ± 0.023 in test [3] (500 nM) and 0.661 ± 0.021 in test [3] (1000 nM).
As for U2OS BONE, the “area under dose-response curve” value was 3.37 with MDV3100 [1], 1.57 with BI-2536, 2.17 with SNX-5422 and 3.13 with CANERTINIB. For the same test system, the surviving fraction with MDV3100 [2] (0.5 nM) was found to be 1.003 ± 0.0095; with MDV3100 [2] (1 nM), 1.02 ± 0.022; with MDV3100 [2] (5 nM) it was 1.01 ± 0.027; with MDV3100 [2] (10 nM) it was 1.01 ± 0.018; in the test with MDV3100 [2] (50 nM) it was 1.04 ± 0.026; with MDV3100 [2] (100 nM), 1.03 ± 0.018. Besides, the surviving fraction with MDV3100 [2] (500 nM) is 1.06 ± 0.033; with MDV3100 [2] (1000 nM) it was 0.999 ± 0.047; in test [3] (0.5 nM) it was 1.06 ± 0.016; in test [3] (1 nM) it was 1.08 ± 0.029; in test [3] (5 nM), 1.1 ± 0.045; in test [3] (10 nM), 1.08 ± 0.04. Also, the surviving fraction in test [3] (50 nM) is 1.04 ± 0.029; in test [3] (100 nM) it was 0.999 ± 0.029; in test [3] (500 nM), 0.201 ± 0.017; in test [3] (1000 nM), 0.0873 ± 0.0068.
In the case of YAMATO SYNOVIAL, the “area under dose-response curve” value stood at 2.85 with MDV3100 [1], 1.27 with BI-2536, 2.53 with SNX-5422 and 3.14 with CANERTINIB. Also, the surviving fraction amounted to 1.12 ± 0.074 with MDV3100 [2] (0.5 nM); 0.741 ± 0.028 in the test with MDV3100 [2] (1 nM); 1.08 ± 0.076 in the test with MDV3100 [2] (5 nM); 0.241 ± 0.015 with MDV3100 [2] (10 nM); 1.22 ± 0.12 with MDV3100 [2] (50 nM); 0.977 ± 0.081 with MDV3100 [2] (100 nM). Also, the surviving fraction amounted to 1.15 ± 0.053 with MDV3100 [2] (500 nM); 0.352 ± 0.018 with MDV3100 [2] (1000 nM); 1.32 ± 0.11 in test [3] (0.5 nM); 1.28 ± 0.16 in test [3] (1 nM); 1.32 ± 0.093 in test [3] (5 nM); 1.33 ± 0.12 in test [3] (10 nM). Besides, the surviving fraction in test [3] (50 nM) stood at 0.8 ± 0.032; in test [3] (100 nM) it was 0.682 ± 0.077; in test [3] (500 nM), 0.285 ± 0.011; in test [3] (1000 nM), 0.258 ± 0.017.
As for ZR751 BREAST, the “area under dose-response curve” value was found to be 3.69 in the test with MDV3100 [1], 2.69 with BI-2536, 2.39 in the test with SNX-5422 and 2.8 with CANERTINIB. The surviving fraction came out at 1.12 ± 0.16 with MDV3100 [2] (0.5 nM); 1.14 ± 0.1 in the test with MDV3100 [2] (1 nM); 1.04 ± 0.042 with MDV3100 [2] (5 nM); 1.04 ± 0.043 with MDV3100 [2] (10 nM); 1.17 ± 0.1 in the test with MDV3100 [2] (50 nM); 1.12 ± 0.076 in the test with MDV3100 [2] (100 nM). For the same test system, the surviving fraction with MDV3100 [2] (500 nM) was 1.22 ± 0.1; in the test with MDV3100 [2] (1000 nM) it was 1.08 ± 0.079; in test [3] (0.5 nM), 1.04 ± 0.079; in test [3] (1 nM), 1.03 ± 0.19; in test [3] (5 nM), 0.941 ± 0.13; in test [3] (10 nM) it was 0.908 ± 0.11. Moreover, the surviving fraction in test [3] (50 nM) came out at 0.787 ± 0.032; in test [3] (100 nM) it was 0.69 ± 0.053; in test [3] (500 nM) it was 0.625 ± 0.044; in test [3] (1000 nM) it was 0.555 ± 0.018.

The record behind these values is the supplement of paper PMC6045584.
